pIC50: −log10 of the molar value.
System: 454973-116-R2-J3-PDC spheroids, percent test/control viability
Experiment: Anticancer human tumor 454973-116-R2-J3-PDC patient-derived pancreatic carcinoma cell line growth inhibition [CLK]
Settings: spheroids with HUVEC and MSC; for pIC50: curve of first compound; for viability, T/C: stronger effect = lower value
Outline: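 Multi-cell-type spheroids combined patient-derived tumor cells with HUVEC endothelial cells and human mesenchymal stem cells. Paired agents were dosed in half-log steps down from about clinical Cmax, or from 10 microM where Cmax was unknown.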

[1] = second compound 0.0316 µM, first compound 0.0316 µM
[2] = second compound 0.0316 µM, first compound 0.1 µM
[3] = second compound 0.0316 µM, first compound 0.316 µM
[4] = second compound 0.0316 µM, first compound 1 µM
[5] = second compound 0.0316 µM, first compound 3.16 µM
[6] = second compound 0.0316 µM, first compound 10 µM
[7] = second compound 0.1 µM, first compound 0.0316 µM
[8] = second compound 0.1 µM, first compound 0.1 µM
[9] = second compound 0.1 µM, first compound 0.316 µM
[10] = second compound 0.1 µM, first compound 1 µM
[11] = second compound 0.1 µM, first compound 3.16 µM
[12] = second compound 0.1 µM, first compound 10 µM
[13] = second compound 0.316 µM, first compound 0.0316 µM
[14] = second compound 0.316 µM, first compound 0.1 µM
[15] = second compound 0.316 µM, first compound 0.316 µM
[16] = second compound 0.316 µM, first compound 1 µM
[17] = second compound 0.316 µM, first compound 3.16 µM
[18] = second compound 0.316 µM, first compound 10 µM
[19] = second compound 1 µM, first compound 0.0316 µM
[20] = second compound 1 µM, first compound 0.1 µM
[21] = second compound 1 µM, first compound 0.316 µM
[22] = second compound 1 µM, first compound 1 µM
[23] = second compound 1 µM, first compound 3.16 µM
[24] = second compound 1 µM, first compound 10 µM
[25] = second compound 3.16 µM, first compound 0.0316 µM
[26] = second compound 3.16 µM, first compound 0.1 µM
[27] = second compound 3.16 µM, first compound 0.316 µM
[28] = second compound 3.16 µM, first compound 1 µM
[29] = second compound 3.16 µM, first compound 3.16 µM
[30] = second compound 3.16 µM, first compound 10 µM
[31] = second compound 10 µM, first compound 0.0316 µM
[32] = second compound 10 µM, first compound 0.1 µM
[33] = second compound 10 µM, first compound 0.316 µM
[34] = second compound 10 µM, first compound 1 µM
[35] = second compound 10 µM, first compound 3.16 µM
[36] = second compound 10 µM, first compound 10 µM
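Note: spheroids exposed to compounds for 7 days before readout.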

## CC(=O)O[C@H]1C(=O)[C@@]2(C)[C@H]([C@H](OC(=O)c3ccccc3)[C@]3(O)C[C@H](OC(=O)[C@H](O)[C@@H](NC(=O)c4ccccc4)c4ccccc4)C(C)=C1C3(C)C)[C@]1(OC(C)=O)CO[C@@H]1C[C@@H]2O + CNC(=O)c1ccc(Nc2nc(OC3CCCC3)c3c(-c4ccc5nc(C)oc5c4)c[nH]c3n2)c(OC)c1
Second compound 0.0316 µM
  pIC50: > 7.50
Second compound 0.1 µM
  pIC50: > 7.50
Second compound 0.316 µM
  pIC50: > 7.50
Second compound 1 µM
  pIC50: > 7.50
Second compound 3.16 µM
  pIC50: > 7.50
Second compound 10 µM
  pIC50: > 7.50
[1]
  viability, T/C: 7.2%
[2]
  viability, T/C: 10.3%
[3]
  viability, T/C: 8.05%
[4]
  viability, T/C: 8.91%
[5]
  viability, T/C: 7.98%
[6]
  viability, T/C: 26.6%
[7]
  viability, T/C: 10.1%
[8]
  viability, T/C: 8.61%
[9]
  viability, T/C: 9.22%
[10]
  viability, T/C: 10.1%
[11]
  viability, T/C: 14.3%
[12]
  viability, T/C: 38%
[13]
  viability, T/C: 33.1%
[14]
  viability, T/C: 39.2%
[15]
  viability, T/C: 43.9%
[16]
  viability, T/C: 48.2%
[17]
  viability, T/C: 83%
[18]
  viability, T/C: 110%
[19]
  viability, T/C: 45.3%
[20]
  viability, T/C: 50.2%
[21]
  viability, T/C: 54.3%
[22]
  viability, T/C: 60.5%
[23]
  viability, T/C: 88.4%
[24]
  viability, T/C: 89.6%
[25]
  viability, T/C: 38.8%
[26]
  viability, T/C: 46.5%
[27]
  viability, T/C: 54.1%
[28]
  viability, T/C: 51.5%
[29]
  viability, T/C: 74.2%
[30]
  viability, T/C: 86.5%
[31]
  viability, T/C: 36.8%
[32]
  viability, T/C: 43.2%
[33]
  viability, T/C: 49.7%
[34]
  viability, T/C: 60.2%
[35]
  viability, T/C: 77.1%
[36]
  viability, T/C: 84.3%

## COc1ccc([C@@H](O)c2cc(-c3ncnc4cc(N5CCOCC5)ccc34)c(F)cc2Cl)nn1 + CNC(=O)c1ccc(Nc2nc(OC3CCCC3)c3c(-c4ccc5nc(C)oc5c4)c[nH]c3n2)c(OC)c1
Second compound 0.0316 µM
  pIC50: < 5.00
Second compound 0.1 µM
  pIC50: < 5.00
Second compound 0.316 µM
  pIC50: > 7.50
Second compound 1 µM
  pIC50: > 7.50
Second compound 3.16 µM
  pIC50: > 7.50
Second compound 10 µM
  pIC50: > 7.50
[1]
  viability, T/C: 109%
[2]
  viability, T/C: 95.5%
[3]
  viability, T/C: 105%
[4]
  viability, T/C: 93%
[5]
  viability, T/C: 80.3%
[6]
  viability, T/C: 51.1%
[7]
  viability, T/C: 98.9%
[8]
  viability, T/C: 110%
[9]
  viability, T/C: 94.5%
[10]
  viability, T/C: 97.2%
[11]
  viability, T/C: 72.9%
[12]
  viability, T/C: 54.7%
[13]
  viability, T/C: 42.2%
[14]
  viability, T/C: 41.4%
[15]
  viability, T/C: 49.1%
[16]
  viability, T/C: 43.2%
[17]
  viability, T/C: 45.5%
[18]
  viability, T/C: 31.9%
[19]
  viability, T/C: 27.8%
[20]
  viability, T/C: 28%
[21]
  viability, T/C: 29.1%
[22]
  viability, T/C: 24.9%
[23]
  viability, T/C: 25.9%
[24]
  viability, T/C: 21.4%
[25]
  viability, T/C: 26.8%
[26]
  viability, T/C: 30.3%
[27]
  viability, T/C: 26.3%
[28]
  viability, T/C: 25.9%
[29]
  viability, T/C: 23.6%
[30]
  viability, T/C: 18.4%
[31]
  viability, T/C: 28.2%
[32]
  viability, T/C: 26.5%
[33]
  viability, T/C: 23.1%
[34]
  viability, T/C: 24.4%
[35]
  viability, T/C: 27.2%
[36]
  viability, T/C: 17.7%

## COc1cccc2c1C(=O)c1c(O)c3c(c(O)c1C2=O)CC(O)(C(=O)CO)CC3OC1CC(N)C(O)C(C)O1 (stereo unspecified) + CNC(=O)c1ccc(Nc2nc(OC3CCCC3)c3c(-c4ccc5nc(C)oc5c4)c[nH]c3n2)c(OC)c1
Second compound 0.0316 µM
  pIC50: 7.50
Second compound 0.1 µM
  pIC50: > 7.50
Second compound 0.316 µM
  pIC50: > 7.50
Second compound 1 µM
  pIC50: > 7.50
Second compound 3.16 µM
  pIC50: > 7.50
Second compound 10 µM
  pIC50: > 7.50
[1]
  viability, T/C: 51.4%
[2]
  viability, T/C: 23%
[3]
  viability, T/C: 21.7%
[4]
  viability, T/C: 6.66%
[5]
  viability, T/C: 1.89%
[6]
  viability, T/C: 1.95%
[7]
  viability, T/C: 46.4%
[8]
  viability, T/C: 26.4%
[9]
  viability, T/C: 19.6%
[10]
  viability, T/C: 4.09%
[11]
  viability, T/C: 2.62%
[12]
  viability, T/C: 1.16%
[13]
  viability, T/C: 27.8%
[14]
  viability, T/C: 25%
[15]
  viability, T/C: 14.5%
[16]
  viability, T/C: 4.53%
[17]
  viability, T/C: 2.76%
[18]
  viability, T/C: 1.6%
[19]
  viability, T/C: 25.2%
[20]
  viability, T/C: 18.5%
[21]
  viability, T/C: 9.38%
[22]
  viability, T/C: 1.17%
[23]
  viability, T/C: 0.61%
[24]
  viability, T/C: 0.81%
[25]
  viability, T/C: 26.2%
[26]
  viability, T/C: 17.2%
[27]
  viability, T/C: 4.87%
[28]
  viability, T/C: 0.94%
[29]
  viability, T/C: 1.27%
[30]
  viability, T/C: 0.57%
[31]
  viability, T/C: 25.1%
[32]
  viability, T/C: 20.3%
[33]
  viability, T/C: 3.72%
[34]
  viability, T/C: 0.69%
[35]
  viability, T/C: 1.84%
[36]
  viability, T/C: 0.97%

Source: PubChem BioAssay AID2060618 (Molecular Pharmacology Branch, DTP, NCI, 2025)
